Patent publication US9796709B2, “5-hydroxy-4-(trifluoromethyl)pyrazolopyridine derivative” (Daiichi Sankyo Company, Limited, priority 2013, dated 2017)
pEC50: −log10 of the molar value.

Tests used:
LCAT = target: T1, LCAT (Homo sapiens, UniProt P04180); experiment: LCAT activity measurement (in vitro), [14C]cholesterol esterification with HDL3 fraction; format: biochemical; conditions: HDL3 fraction from plasma of a healthy person as enzyme source and acceptor; 37° C., approximately 16 hours; relative to sample without test drug; read-out: EC50 of LCAT activation
T1 construct: The obtained fraction was dialyzed against phosphate-buffered saline (pH 7.4) and used as an enzyme source and an acceptor for LCAT; from tissue; host or cells: HDL3 fraction (1.125 < specific gravity < 1.210 g/mL) of plasma from a healthy person
T1 sequence (P04180 25-440): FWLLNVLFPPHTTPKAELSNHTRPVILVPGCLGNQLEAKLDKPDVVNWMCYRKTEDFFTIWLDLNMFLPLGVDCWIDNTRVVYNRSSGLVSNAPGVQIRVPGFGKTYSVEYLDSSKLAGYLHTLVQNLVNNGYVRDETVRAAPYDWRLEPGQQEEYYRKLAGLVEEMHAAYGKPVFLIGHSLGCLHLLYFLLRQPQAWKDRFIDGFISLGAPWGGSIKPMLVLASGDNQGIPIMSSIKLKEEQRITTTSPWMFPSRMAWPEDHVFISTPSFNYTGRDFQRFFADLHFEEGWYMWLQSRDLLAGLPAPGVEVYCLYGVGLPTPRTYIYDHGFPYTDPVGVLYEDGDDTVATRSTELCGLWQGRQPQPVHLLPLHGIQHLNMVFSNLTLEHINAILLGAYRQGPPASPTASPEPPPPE
Method: A fraction composed of HDL3 (1.125 <specific gravity <1.210 g/mL) was obtained from the plasma of a healthy person by density gradient centrifugation. The obtained fraction was dialyzed against phosphate-buffered saline (pH 7.4) and used as an enzyme source and an acceptor for LCAT. Each test drug was prepared by dissolution in dimethyl sulfoxide. [^14C]Cholesterol containing DTNB (Ellman's reagent, final concentration: 0.5 mM), mercaptoethanol (final concentration: 12.5 mM), and 0.6% bovine serum albumin was added to phosphate-buffered saline (pH 7.4) containing 1 mg/mL HDL3, and the test drug was further added thereto at varying concentrations to adjust the whole amount to 80 μL. This mixture was incubated at 37° C. for approximately 16 hours. Then, a mixed solution of hexane and isopropanol (mixing ratio=3:2) was added thereto to stop the reaction. After stirring, the hexane layer was collected, and this layer was evaporated to dryness. A chloroform solution (concentration: 10 mg/mL) was added thereto, and the mixture was spotted onto a thin-layer silica gel plate and developed using a mixed solution of hexane, diethyl ether, and ethyl acetate (mixing ratio=85:15:2). The radioactivity of a portion corresponding to cholesterol oleate was measured using an imaging analyzer BAS-2500 (manufactured by Fujifilm Corp.). A sample non-supplemented with the test drug was similarly treated and assayed. The EC50 value of LCAT activation was calculated according to the expression given below relative to LCAT activity in the sample non-supplemented with the test drug.
[formula] • wherein X represents the logarithm of the concentration of the test drug; • Y represents the responsiveness (LCAT activity) of the test drug; • Top represents the maximum value (maximum plateau); • Bottom represents the minimum value (minimum plateau); and • EC50 represents the 50% effective concentration.

cynomolgus monkey = experiment: Drug efficacy test in cynomolgus monkeys (plasma HDL cholesterol); format: in vivo; conditions: Macaca fascicularis, oral, single dose of 10 mg/kg, from AUC before administration and 24 hours after administration, read-out: Rate of increase in HDL level after administration of single dose
Method: Each test drug was dissolved in a propylene glycol (Sigma-Aldrich Corp.)-Tween 80 (Sigma-Aldrich Corp.) mixed solution [4/1 (v/v)] or a 0.5% (w/v) methylcellulose aqueous solution, and the solution was orally administered to a cynomolgus monkey for 1 or 7 days. At day 1 or 7 of the administration period, blood was collected before administration and after administration, and plasma was obtained. The content of cholesterol in the plasma was measured using a commercially available assay kit (Cholesterol-E Wako, Wako Pure Chemical Industries, Ltd.). The lipoprotein profile was analyzed by HPLC (column: LipopropakXL, manufactured by Tosoh Corp.). The contents of HDL cholesterol and non-HDL cholesterol were calculated according to the following calculation expression: Content of HDL cholesterol=Content of cholesterol in the plasma×(Peak area of HDL cholesterol/Total sum of peaks) Content of non-HDL cholesterol=Content of cholesterol in the plasma×(Peak area of non-HDL cholesterol/Total sum of peaks)

SMILES | pEC50 (LCAT) | change in vivo at 10 mg/kg (cynomolgus monkey) [%]
O=C1Nc2[nH]nc(C3CCN(c4cc(C(F)(F)F)ncn4)CC3)c2[C@@H](C(F)(F)F)[C@H]1O (single isomer, unassigned) [Example 30, (+)-cis-5-Hydroxy-4-(trifluoromethyl)-3-{1-[6-(trifluoromethyl)pyrimidin-4-yl]piperidin-4-yl}-1,4,5,7-tetrahydro-6H-pyrazolo[3,4-b]pyridin-6-one] | 7.20 | 290
O=C1Nc2[nH]nc(C3CCN(c4ccc(C(F)(F)F)nn4)CC3)c2[C@@H](C(F)(F)F)[C@@H]1O (racemic) [Example 6, trans-5-Hydroxy-4-(trifluoromethyl)-3-{1-[6-(trifluoromethyl)pyridazin-3-yl]piperidin-4-yl}-1,4,5,7-tetrahydro-6H-pyrazolo[3,4-b]pyridin-6-one] | 5.65 | 
O=C1Nc2[nH]nc(C3CCN(c4cnc(C5CC5)nc4)CC3)c2[C@@H](C(F)(F)F)[C@H]1O (single isomer, unassigned) [Example 40, cis-3-[1-(2-cyclopropylpyrimidin-5-yl)piperidin-4-yl]-5-hydroxy-4-(trifluoromethyl)-1,4,5,7-tetrahydro-6H-pyrazolo[3,4-b]pyridin-6-one] | 7.15 | 
N#Cc1cnc(N2CCC(c3n[nH]c4c3[C@@H](C(F)(F)F)[C@@H](O)C(=O)N4)CC2)cn1 (single isomer, unassigned) [Example 28, (+)-5-{4-[cis-5-Hydroxy-6-oxo-4-(trifluoromethyl)-4,5,6,7-tetrahydro-1H-pyrazolo[3,4-b]pyridin-3-yl]piperidin-1-yl}pyrazine-2-carbonitrile] | 6.80 | 
CC(C)Oc1ccc(N2CCC(c3n[nH]c4c3[C@@H](C(F)(F)F)[C@@H](O)C(=O)N4)CC2)nc1 (single isomer, unassigned) [Example 36, (+)-cis-5-Hydroxy-3-[1-(5-isopropoxypyridin-2-yl)piperidin-4-yl]-4-(trifluoromethyl)-1,4,5,7-tetrahydro-6H-pyrazolo[3,4-b]pyridin-6-one] | 7.39 | 
O=C1Nc2[nH]nc(C3CCN(c4cnc(C(F)(F)F)cn4)CC3)c2[C@@H](C(F)(F)F)[C@@H]1O (racemic) [Example 10, trans-5-Hydroxy-4-(trifluoromethyl)-3-{1-[5-(trifluoromethyl)pyrazin-2-yl]piperidin-4-yl}-1,4,5,7-tetrahydro-6H-pyrazolo[3,4-b]pyridin-6-one] | 6.47 | 
CC(C)Oc1ccc(N2CCC(c3n[nH]c4c3[C@@H](C(F)(F)F)[C@@H](O)C(=O)N4)CC2)nn1 (single isomer, unassigned) [Example 41, (+)-cis-5-Hydroxy-3-[1-(6-isopropoxypyridazin-3-yl)piperidin-4-yl]-4-(trifluoromethyl)-1,4,5,7-tetrahydro-6H-pyrazolo[3,4-b]pyridin-6-one] | 7.46 | 
CC(C)c1nc(N2CCC(c3n[nH]c4c3[C@@H](C(F)(F)F)[C@H](O)C(=O)N4)CC2)cc(C(F)(F)F)n1 (racemic) [Example 8, trans-5-Hydroxy-3-{1-[2-isopropyl-6-(trifluoromethyl)pyrimidin-4-yl]piperidin-4-yl}-4-(trifluoromethyl)-1,4,5,7-tetrahydro-6H-pyrazolo[3,4-b]pyridin-6-one] | 6.20 | 

Stronger by pEC50 (LCAT), values ahead:

pEC50 (LCAT) | SMILES | change in vivo at 10 mg/kg (cynomolgus monkey) [%]
8.15 | O=C1Nc2[nH]nc(C3CCN(c4ccc(C(F)(F)F)cn4)CC3)c2C(O)(C(F)(F)F)C1O (single isomer, unassigned; (+)) [Example 35, (+)-4,5-Dihydroxy-4-(trifluoromethyl)-3-{1-[5-(trifluoromethyl)pyridin-2-yl]piperidin-4-yl}-1,4,5,7-tetrahydro-6H-pyrazolo[3,4-b]pyridin-6-one] | 482
8.05 | O=C1Nc2[nH]nc(C3CCN(c4cnc(C(F)(F)F)cn4)CC3)c2[C@@H](C(F)(F)F)[C@H]1O (single isomer, unassigned) [Example 18, (+)-cis-5-Hydroxy-4-(trifluoromethyl)-3-{1-[5-(trifluoromethyl)pyrazin-2-yl]piperidin-4-yl}-1,4,5,7-tetrahydro-6H-pyrazolo[3,4-b]pyridin-6-one] | 644
8.40 | O=C1Nc2[nH]nc(C3CCN(c4cnc(C(F)(F)F)cn4)CC3)c2C(O)(C(F)(F)F)C1O (single isomer, unassigned; (+)) [Example 34, (+)-4,5-Dihydroxy-4-(trifluoromethyl)-3-{1-[5-(trifluoromethyl)pyrazin-2-yl]piperidin-4-yl}-1,4,5,7-tetrahydro-6H-pyrazolo[3,4-b]pyridin-6-one] | 590
7.89 | O=C1Nc2[nH]nc(C3CCN(c4ccc(C(F)(F)F)cn4)CC3)c2[C@@H](C(F)(F)F)[C@H]1O (single isomer, unassigned) [Example 3, (+)-cis-5-Hydroxy-4-(trifluoromethyl)-3-{1-[5-(trifluoromethyl)pyridin-2-yl]piperidin-4-yl}-1,4,5,7-tetrahydro-6H-pyrazolo[3,4-b]pyridin-6-one] | 658
7.49 | O=C1Nc2[nH]nc(C3CCN(c4ccc(Cl)cn4)CC3)c2[C@@H](C(F)(F)F)[C@H]1O (single isomer, unassigned) [Example 22, (+)-cis-3-[1-(5-Chloropyridin-2-yl)piperidin-4-yl]-5-hydroxy-4-(trifluoromethyl)-1,4,5,7-tetrahydro-6H-pyrazolo[3,4-b]pyridin-6-one] | 581
7.52 | N#Cc1ncc(N2CCC(c3n[nH]c4c3[C@@H](C(F)(F)F)[C@@H](O)C(=O)N4)CC2)cc1F (single isomer, unassigned) [Example 24, (+)-3-Fluoro-5-{4-[cis-5-hydroxy-6-oxo-4-(trifluoromethyl)-4,5,6,7-tetrahydro-1H-pyrazolo[3,4-b]pyridin-3-yl]piperidin-1-yl}pyridine-2-carbonitrile] | 
7.54 | O=C1Nc2[nH]nc(C3CCN(c4cnc(C(F)(F)F)cn4)CC3)c2[C@@H](C(F)(F)F)[C@H]1O (racemic) [Example 11, cis-5-Hydroxy-4-(trifluoromethyl)-3-{l-[5-(trifluoromethyl)pyrazin-2-yl]piperidin-4-yl}-1,4,5,7-tetrahydro-6H-pyrazolo[3,4-b]pyridin-6-one] | 
8.10 | O=C1Nc2[nH]nc(C3CCN(c4ccc(C(F)(F)F)nc4)CC3)c2[C@@H](C(F)(F)F)[C@H]1O (single isomer, unassigned) [Example 23, (+)-cis-5-Hydroxy-4-(trifluoromethyl)-3-{1-[6-(trifluoromethyl)pyridin-3-yl]piperidin-4-yl}-1,4,5,7-tetrahydro-6H-pyrazolo[3,4-b]pyridin-6-one] | 
8.15 | O=C(OCc1ccccc1)c1cc(N2CCC(c3n[nH]c4c3[C@@H](C(F)(F)F)[C@@H](O)C(=O)N4)CC2)ncc1C(F)(F)F (single isomer, unassigned) [Example 32, Benzyl (+)-2-{4-[cis-5-hydroxy-6-oxo-4-(trifluoromethyl)-4,5,6,7-tetrahydro-1H-pyrazolo[3,4-b]pyridin-3-yl]piperidin-1-yl}-5-(trifluoromethyl)pyridine-4-carboxylate] | 
7.96 | O=C1Nc2[nH]nc(C3CCN(c4ccc(-c5ccccc5)nn4)CC3)c2[C@@H](C(F)(F)F)[C@H]1O (single isomer, unassigned) [Example 29, cis-5-hydroxy-3-[1-(6-phenylpyridazin-3-yl)piperidin-4-yl]-4-(trifluoromethyl)-1,4,5,7-tetrahydro-6H-pyrazolo[3,4-b]pyridin-6-one] | 
